Source: publication PMC11852064 (Antibiotics, 2025)
Where two headings read alike, the source gives them in different places.

What was measured:
[1] = Population pharmacokinetic analysis of multidose DAL in adult patients (NONMEM); type: in vivo, human
From the text: This prospective/retrospective study was approved by Liguria Territorial Ethics Committee (DALT DRUM Study, Registration number 82/2023—DB id 13014) and carried out from February 2023 to February 2024 at Ente Ospedaliero Ospedali Galliera, Genoa, Italy. Adult patients referred to the Department of Infectious Diseases with documented or suspected Gram-positive infection who failed primary antimicrobial therapy and were prescribed a multidose DAL regimen as a rescue treatment were deemed eligible for inclusion and after signing the informed consent they were enrolled in the study.
To avoid impacting patient lifestyle and routine clinical practice, a sparse sampling strategy was also adopted for outpatients needing blood tests at the convenience of the prescribing physician.
Pharmacokinetic data were analyzed according to a nonlinear mixed-effects modeling approach using NONMEM v7.5 with Pirana modeling workbench, whilst R, version 4.3.2, was used for data formatting and graphical and statistical summaries. No data transformation was applied to PK concentrations prior to the analysis.
From an initial model (one-compartment, first-order elimination with proportional error model), different possible combinations of structural and stochastic models, as well as the inter-individual variability (IIV) of PK parameters were assessed. The effect of several covariates, previously screened for their influence on the PK parameters of the drug under study, was then included in a stepwise manner with backward elimination in the final model. Continuous covariates (age, weight, height, serum albumin, creatinine, creatine clearance, PCR) were centered on their median value and their effect was evaluated by linear and non-linear relationships. Improvement between models was judged based on a decrease in objective function value (OFV) greater than 3.84 units (p < 0.05) using the FOCE-I estimation method, whilst an increase by more than 6.64 units (p < 0.01) upon removal was adopted during backward exclusion. Additionally, during the initial model-building process outliers were detected and excluded from the analysis based on visual examination of data points identified with conditional weighted residuals (CWRES) > 3. To evaluate the influence of outliers, a sensitivity analysis was conducted in which the updated popPK model was run with and without outliers. If a statistically significant change in OFV or in the estimation of key fixed-effects parameters was observed, outliers were considered influential in the modeling steps and commented out.
The predictive performance of the PK models was assessed by appropriateness of the relative standard error (RSE < 30%), graphically by means of classical key diagnostic plots, prediction-corrected visual predictive check (pcVPC), and by inspecting bootstrap results from 1000 resampled datasets. Finally, eta-shrinkage values were calculated to identify and quantify model overfitting.

[2] = cited from earlier work
[3] = parameters: method as in earlier work; conditions: ref 40, 41; cited from earlier work
S. aureus = conditions: ref 14; cited from earlier work
[4] = system: Staphylococcus aureus, Staphylococcus epidermidis, Enterococcus spp. vancomycin-sensitive (VSE), or vancomycin-resistant Van B biofilms; conditions: ref 37, 38; cited from earlier work
From the text: In some instances, TDM ...

[5] = elimination via combination of renal and nonrenal clearance; cited from earlier work
[6] = cited from earlier work; remark: listed apart in the source
[7] = bootstrap, 1000 resampled datasets
[8] = final two-compartment popPK model, allometric body weight, 30 adult patients, CLcr > 30 mL/min

| Substance | CL, bootstrap median (CI 5-95%) [1, 7] | Q, bootstrap median (CI 5-95%) [1, 7] | V1, bootstrap median (CI 5-95%) [1, 7] | V2, bootstrap median (CI 5-95%) [1, 7] | Q, inter-compartmental clearance, estimate [1, 8] | V1, central volume of distribution, estimate [1, 8] | V2, peripheral volume of distribution, estimate [1, 8] | CL, total body clearance, estimate ([1]; human, in vivo, iv, 1500 mg) | Free fraction of DAL in plasma ([2]; as reported on the label) | Binding to plasma proteins ([2]; ref 5) | Binding to plasma proteins ([2]; ref 28) | EUCAST/USCAST clinical breakpoint MIC [3] | Former EUCAST clinical breakpoint of susceptibility (MIC) (S. aureus) | Activity in vitro against established biofilms [4] | Renal share of elimination (renal clearance) [5] | duration of sufficient tissue exposure [6] |
| --- | --- | --- | --- | --- | --- | --- | --- | --- | --- | --- | --- | --- | --- | --- | --- | --- |
| Dalbavancin [listing 1 of 2 here] | 0.0272 (0.0251–0.0294) L/h | 0.0223 (0.0175–0.02936) L/h | 3.6 (3.4–3.8) L | 6.5 (5.6–7.5) L | 0.0225 L/h | 3.6 L | 6.4 L | 0.0273 L/h | 7% | 93% | 93% | 0.25 µg/mL | 0.125 µg/mL | potent activity | approximately 45% |  |
| Dalbavancin [listing 2 of 2 here] |  |  |  |  |  |  |  |  |  |  |  |  |  |  |  | 8 weeks |
